Among the data in PubChem BioAssay AID1259407 (Chemical Carcinogenesis Research Information System (CCRIS), 2018) are mutagenic call values, retold here.

In the series the test system is CCRIS mutagenicity, Ames/micronucleus/aberration tests. As to the kind of experiment: CCRIS mutagenicity studies.
Setting [1] is: Test System: AMES SALMONELLA TYPHIMURIUM, Strain/Indicator: TA98, Metabolic Activation: NONE, Method: STANDARD PLATE.
[2] abbreviates: Test System: AMES SALMONELLA TYPHIMURIUM, Strain/Indicator: TA100, Metabolic Activation: NONE, Method: STANDARD PLATE.
Where [3] appears, read: Test System: AMES SALMONELLA TYPHIMURIUM, Strain/Indicator: TA1535, Metabolic Activation: NONE, Method: STANDARD PLATE.
The mark [4] stands for this setting: Test System: AMES SALMONELLA TYPHIMURIUM, Strain/Indicator: TA1537, Metabolic Activation: NONE, Method: STANDARD PLATE.

Activity calls are given as the source filed them. How the calls were made is not given here.

For `[Cl][Ni][Cl]`, the mutagenic call (End Point: IN VITRO MICRONUCLEUS, Test System: CHL/IU CELLS, Metabolic Activation: NONE) is “active; positive”; the mutagenic call (Test System: AMES SALMONELLA TYPHIMURIUM, Strain/Indicator: TA102, Metabolic Activation: NONE, Method: PREINCUBATION) is “inactive; negative”; the mutagenic call (Test System: AMES SALMONELLA TYPHIMURIUM, Strain/Indicator: TA1535, Metabolic Activation: NONE, Method: PREINCUBATION) was “inactive; negative”; the mutagenic call (Test System: AMES SALMONELLA TYPHIMURIUM, Strain/Indicator: TA1538, Metabolic Activation: NONE, Method: PREINCUBATION) was “inactive; negative”; the mutagenic call (Test System: AMES SALMONELLA TYPHIMURIUM, Strain/Indicator: TA1975, Metabolic Activation: NONE, Method: PREINCUBATION) was “inactive; negative”; the mutagenic call (Test System: AMES SALMONELLA TYPHIMURIUM, Strain/Indicator: TA1978, Metabolic Activation: NONE, Method: PREINCUBATION) is “inactive; negative”. For the same compound, the mutagenic call was “active; positive” (Test System: CHINESE HAMSTER G10, Strain/Indicator: G10 (GPT)/6-THIOGUANINE, Metabolic Activation: NONE); “active; positive” (Test System: CHINESE HAMSTER G10, Strain/Indicator: G10/6-THIOGUANINE, Metabolic Activation: NONE); “active; positive” (Test System: CHINESE HAMSTER G12, Strain/Indicator: G12 (GPT)/6-THIOGUANINE, Metabolic Activation: NONE); “active; positive” (Test System: CHINESE HAMSTER G12, Strain/Indicator: G12/6-THIOGUANINE, Metabolic Activation: NONE); “inactive; negative” (Test System: CHINESE HAMSTER V-79, Strain/Indicator: SP5 V-79 (HPRT)/6-THIOGUANINE, Metabolic Activation: NONE, Method: STANDARD PLATE); “active; positive” (Test System: CHINESE HAMSTER V-79, Strain/Indicator: SPD8 V-79 (HPRT)/6-THIOGUANINE, Metabolic Activation: NONE, Method: STANDARD PLATE). Besides, the mutagenic call reads like this: (Test System: E. COLI, Strain/Indicator: WP2 UVRA, Metabolic Activation: NONE, Method: SPOT TEST) “active; positive”; (Test System: E. COLI, Strain/Indicator: WP2 UVRA, Metabolic Activation: NONE, Method: STANDARD PLATE) “active; positive”; (Test System: UDS HUMAN AMNION FL CELL LINE, Strain/Indicator: THY INCORP, Metabolic Activation: NONE, Method: LIQUID SCINTILLATION COUNTING) “active; positive”.

As to `CC1CCCO1` (stereo not given), the mutagenic call was “inactive; negative” (Test System: AMES SALMONELLA TYPHIMURIUM, Strain/Indicator: TA98, Metabolic Activation: HAMSTER LIVER S-9, AROCLOR 1254, Method: STANDARD PLATE); “inactive; negative” under setting [1]; “inactive; negative” (Test System: AMES SALMONELLA TYPHIMURIUM, Strain/Indicator: TA98, Metabolic Activation: RAT LIVER S-9, AROCLOR 1254, Method: STANDARD PLATE); “inactive; negative” (Test System: AMES SALMONELLA TYPHIMURIUM, Strain/Indicator: TA100, Metabolic Activation: HAMSTER LIVER S-9, AROCLOR 1254, Method: STANDARD PLATE); “inactive; negative” under setting [2]; “inactive; negative” (Test System: AMES SALMONELLA TYPHIMURIUM, Strain/Indicator: TA100, Metabolic Activation: RAT LIVER S-9, AROCLOR 1254, Method: STANDARD PLATE). The mutagenic call by setting is: (Test System: AMES SALMONELLA TYPHIMURIUM, Strain/Indicator: TA102, Metabolic Activation: HAMSTER LIVER S-9, AROCLOR 1254, Method: STANDARD PLATE) “inactive; negative”; (Test System: AMES SALMONELLA TYPHIMURIUM, Strain/Indicator: TA102, Metabolic Activation: NONE, Method: STANDARD PLATE) “inactive; negative”; (Test System: AMES SALMONELLA TYPHIMURIUM, Strain/Indicator: TA102, Metabolic Activation: RAT LIVER S-9, AROCLOR 1254, Method: STANDARD PLATE) “inactive; negative”; (Test System: AMES SALMONELLA TYPHIMURIUM, Strain/Indicator: TA1535, Metabolic Activation: HAMSTER LIVER S-9, AROCLOR 1254, Method: STANDARD PLATE) “inactive; negative”; under setting [3], “inactive; negative”; (Test System: AMES SALMONELLA TYPHIMURIUM, Strain/Indicator: TA1535, Metabolic Activation: RAT LIVER S-9, AROCLOR 1254, Method: STANDARD PLATE) “inactive; negative”. Moreover, the mutagenic call is, setting by setting: (Test System: AMES SALMONELLA TYPHIMURIUM, Strain/Indicator: TA1537, Metabolic Activation: HAMSTER LIVER S-9, AROCLOR 1254, Method: STANDARD PLATE) “inactive; negative”; under setting [4], “inactive; negative”; (Test System: AMES SALMONELLA TYPHIMURIUM, Strain/Indicator: TA1537, Metabolic Activation: RAT LIVER S-9, AROCLOR 1254, Method: STANDARD PLATE) “inactive; negative”; (Test System: Mouse lymphoma, Strain/Indicator: L5178Y (tk+/tk-), Metabolic Activation: None, Method: Suspension/plate) “inactive; negative”; (Test System: Mouse lymphoma, Strain/Indicator: L5178Y (tk+/tk-), Metabolic Activation: Rat, Liver, S-9, Aroclor 1254, Method: Suspension/plate) “inactive; inconclusive (previous evaluation negative)”.

Consider `NCP(=O)(O)O`, for which the mutagenic call is “active; positive (structural changes)” (End Point: In vitro chromosome aberrations, Test System: Human peripheral blood lymphocytes, Metabolic Activation: None); “active; positive” (End Point: In vivo micronucleus, Test System: Bone marrow erythrocytes, Species: Mouse, Strain/Sex: BALB/Male and female, Route: Intraperitoneal).

Consider `CC(CN(CC(=O)O)CC(=O)O)N(CC(=O)O)CC(=O)O` (stereo not given), for which the mutagenic call is, setting by setting: (Test System: CHINESE HAMSTER V-79, Strain/Indicator: V-79/OUABAIN, Metabolic Activation: NONE, Method: STANDARD PLATE) “active; positive”; (Test System: UDS RODENT CELLS, Strain/Indicator: THY INCORP (NON-S-PHASE), Metabolic Activation: NONE, Method: AUTORADIOGRAPHY) “active; positive”.

For `Cc1ccc2nsc(NC(=O)C(Cl)(Cl)Cl)c2c1`, the mutagenic call is “active; positive” under setting [1]; “active; positive” (Test System: AMES SALMONELLA TYPHIMURIUM, Strain/Indicator: TA98, Metabolic Activation: S-9, Method: STANDARD PLATE); “active; positive” under setting [2]; “active; positive” (Test System: AMES SALMONELLA TYPHIMURIUM, Strain/Indicator: TA100, Metabolic Activation: S-9, Method: STANDARD PLATE); “inactive; negative” under setting [3]; “inactive; negative” (Test System: AMES SALMONELLA TYPHIMURIUM, Strain/Indicator: TA1535, Metabolic Activation: S-9, Method: STANDARD PLATE). Moreover, the mutagenic call under setting [4] was “inactive; negative” and the mutagenic call (Test System: AMES SALMONELLA TYPHIMURIUM, Strain/Indicator: TA1537, Metabolic Activation: S-9, Method: STANDARD PLATE) is “inactive; negative”.

On to `O=[N+]([O-])c1ccc2c(c1)NCC2`, for which the mutagenic call under setting [1] was “active; positive”.
